# “And” between values parts separate entries of the source, which are not always exact repeats. Identical values can stand only once.
# System: 186277-243-T-J2-PDC spheroids with HUVEC/MSC, viability
# Assay: Anticancer human tumor 186277-243-T-J2-PDC patient-derived colon adenocarcinoma cell line growth inhibition [CLK]
# Details: for viability, T/C: stronger effect = lower value
# Outline: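 Patient-derived tumor cells grown as complex spheroids with HUVEC endothelial cells and mesenchymal stem cells, treated with drug combinations. Concentrations descend in half-log steps from near clinical Cmax, or from 10 microM if Cmax unknown.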
# [1] = curve of first compound, second compound 0.0316 µM
# [2] = curve of first compound, second compound 0.1 µM
# [3] = curve of first compound, second compound 0.316 µM
# [4] = curve of first compound, second compound 1 µM
# [5] = curve of first compound, second compound 3.16 µM
# [6] = curve of first compound, second compound 10 µM
# 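Note: compound exposure lasted seven days before readout.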
# 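Throughout, for viability, T/C: 100% = DMSO vehicle control wells.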
structure (smiles),measurement,setting,value
C=C(F)C(=O)N1CCN(c2nc(OCC3CCCN3C)nc3c2CCN(c2cccc4cccc(Cl)c24)C3)CC1CC#N (stereo not given),"viability, T/C",compound 0.0316 µM,79% and 94.1%
same,"viability, T/C",compound 0.1 µM,82.2% and 88.8%
same,"viability, T/C",compound 0.316 µM,93% and 82.2%
same,"viability, T/C",compound 1 µM,83.4% and 89.4%
same,"viability, T/C",compound 3.16 µM,101% and 109%
same,IC50,curve of compound,5270 nM and 7510 nM
CCN1CCN(Cc2ccc(Nc3ncc(F)c(-c4cc(F)c5nc(C)n(C(C)C)c5c4)n3)nc2)CC1 + CN1CCN(c2cc(C(=O)Nc3cc4cc(-c5cnn(C)c5)ccc4cn3)ccn2)CC1,IC50,[1],> 1000 nM
same,IC50,[2],> 1000 nM
same,IC50,[3],< 3.16 nM
same,IC50,[4],< 3.16 nM
same,IC50,[5],< 3.16 nM
same,IC50,[6],< 3.16 nM
same,"viability, T/C","second compound 0.0316 µM, first compound 0.00316 µM",85.5%
same,"viability, T/C","second compound 0.0316 µM, first compound 0.01 µM",79.4%
same,"viability, T/C","second compound 0.0316 µM, first compound 0.0316 µM",95.7%
same,"viability, T/C","second compound 0.0316 µM, first compound 0.1 µM",103%
same,"viability, T/C","second compound 0.0316 µM, first compound 0.316 µM",99%
same,"viability, T/C","second compound 0.0316 µM, first compound 1 µM",102%
same,"viability, T/C","second compound 0.1 µM, first compound 0.00316 µM",78.9%
same,"viability, T/C","second compound 0.1 µM, first compound 0.01 µM",100%
same,"viability, T/C","second compound 0.1 µM, first compound 0.0316 µM",91.4%
same,"viability, T/C","second compound 0.1 µM, first compound 0.1 µM",79.5%
same,"viability, T/C","second compound 0.1 µM, first compound 0.316 µM",71.9%
same,"viability, T/C","second compound 0.1 µM, first compound 1 µM",69.3%
same,"viability, T/C","second compound 0.316 µM, first compound 0.00316 µM",25.5%
same,"viability, T/C","second compound 0.316 µM, first compound 0.01 µM",32.6%
same,"viability, T/C","second compound 0.316 µM, first compound 0.0316 µM",28.9%
same,"viability, T/C","second compound 0.316 µM, first compound 0.1 µM",29.9%
same,"viability, T/C","second compound 0.316 µM, first compound 0.316 µM",36.8%
same,"viability, T/C","second compound 0.316 µM, first compound 1 µM",31.8%
same,"viability, T/C","second compound 1 µM, first compound 0.00316 µM",0.99%
same,"viability, T/C","second compound 1 µM, first compound 0.01 µM",0.98%
same,"viability, T/C","second compound 1 µM, first compound 0.0316 µM",0.48%
same,"viability, T/C","second compound 1 µM, first compound 0.1 µM",0.4%
same,"viability, T/C","second compound 1 µM, first compound 0.316 µM",1.43%
same,"viability, T/C","second compound 1 µM, first compound 1 µM",1.19%
same,"viability, T/C","second compound 3.16 µM, first compound 0.00316 µM",2.53%
same,"viability, T/C","second compound 3.16 µM, first compound 0.01 µM",1.22%
same,"viability, T/C","second compound 3.16 µM, first compound 0.0316 µM",0.9%
same,"viability, T/C","second compound 3.16 µM, first compound 0.1 µM",1.58%
same,"viability, T/C","second compound 3.16 µM, first compound 0.316 µM",1.39%
same,"viability, T/C","second compound 3.16 µM, first compound 1 µM",2.07%
same,"viability, T/C","second compound 10 µM, first compound 0.00316 µM",0.79%
same,"viability, T/C","second compound 10 µM, first compound 0.01 µM",0.62%
same,"viability, T/C","second compound 10 µM, first compound 0.0316 µM",1.4%
same,"viability, T/C","second compound 10 µM, first compound 0.1 µM",1.82%
same,"viability, T/C","second compound 10 µM, first compound 0.316 µM",0.83%
same,"viability, T/C","second compound 10 µM, first compound 1 µM",0.55%
CC(C)CC(NC(=O)C(Cc1ccccc1)NC(=O)c1cnccn1)B(O)O (stereo not given) + CNC(=O)c1ccc(Nc2nc(OC3CCCC3)c3c(-c4ccc5nc(C)oc5c4)c[nH]c3n2)c(OC)c1,IC50,[1],3.74 nM
same,IC50,[2],1.79 nM
same,IC50,[3],1.03 nM
same,IC50,[4],< 0.949 nM
same,IC50,[5],< 0.949 nM
same,IC50,[6],< 0.949 nM
same,"viability, T/C","second compound 0.0316 µM, first compound 0.000949 µM",112%
same,"viability, T/C","second compound 0.0316 µM, first compound 0.003 µM",60.9%
same,"viability, T/C","second compound 0.0316 µM, first compound 0.00949 µM",4.41%
same,"viability, T/C","second compound 0.0316 µM, first compound 0.03 µM",2.07%
same,"viability, T/C","second compound 0.0316 µM, first compound 0.0949 µM",3.06%
same,"viability, T/C","second compound 0.0316 µM, first compound 0.3 µM",2.24%
same,"viability, T/C","second compound 0.1 µM, first compound 0.000949 µM",77.7%
same,"viability, T/C","second compound 0.1 µM, first compound 0.003 µM",27.6%
same,"viability, T/C","second compound 0.1 µM, first compound 0.00949 µM",3.68%
same,"viability, T/C","second compound 0.1 µM, first compound 0.03 µM",1.91%
same,"viability, T/C","second compound 0.1 µM, first compound 0.0949 µM",2.97%
same,"viability, T/C","second compound 0.1 µM, first compound 0.3 µM",2.4%
same,"viability, T/C","second compound 0.316 µM, first compound 0.000949 µM",52.8%
same,"viability, T/C","second compound 0.316 µM, first compound 0.003 µM",13.1%
same,"viability, T/C","second compound 0.316 µM, first compound 0.00949 µM",2.31%
same,"viability, T/C","second compound 0.316 µM, first compound 0.03 µM",2.27%
same,"viability, T/C","second compound 0.316 µM, first compound 0.0949 µM",1.45%
same,"viability, T/C","second compound 0.316 µM, first compound 0.3 µM",0.89%
same,"viability, T/C","second compound 1 µM, first compound 0.000949 µM",36.5%
same,"viability, T/C","second compound 1 µM, first compound 0.003 µM",3.94%
same,"viability, T/C","second compound 1 µM, first compound 0.00949 µM",2.3%
same,"viability, T/C","second compound 1 µM, first compound 0.03 µM",2.6%
same,"viability, T/C","second compound 1 µM, first compound 0.0949 µM",4.22%
same,"viability, T/C","second compound 1 µM, first compound 0.3 µM",2.48%
same,"viability, T/C","second compound 3.16 µM, first compound 0.000949 µM",33.3%
same,"viability, T/C","second compound 3.16 µM, first compound 0.003 µM",2.4%
same,"viability, T/C","second compound 3.16 µM, first compound 0.00949 µM",0.9%
same,"viability, T/C","second compound 3.16 µM, first compound 0.03 µM",2.14%
same,"viability, T/C","second compound 3.16 µM, first compound 0.0949 µM",2.81%
same,"viability, T/C","second compound 3.16 µM, first compound 0.3 µM",0.81%
same,"viability, T/C","second compound 10 µM, first compound 0.000949 µM",40.4%
same,"viability, T/C","second compound 10 µM, first compound 0.003 µM",2.71%
same,"viability, T/C","second compound 10 µM, first compound 0.00949 µM",1.47%
same,"viability, T/C","second compound 10 µM, first compound 0.03 µM",4.33%
same,"viability, T/C","second compound 10 µM, first compound 0.0949 µM",2.67%
same,"viability, T/C","second compound 10 µM, first compound 0.3 µM",1.5%
